Laboratory results reported in patent US20030129224A1, “Lipid carrier compositions and methods for improved drug retention” (priority 2001, published 2003).

Columns and labels:
[1] = Idarubicin retention in liposomes in blood after intravenous injection; format: in vivo, Balb/c mice; conditions: cholesterol-free DSPC/DSPE-PEG2000 (95:5); 300 mM citrate (>500 mOsm/kg) in relation to 100 and 150 mM (<500 mOsm/kg); i.v.; 0.5-24 h
Protocol: DSPC/DSPE-PEG2000 (95:5 mole ratio) liposomes containing the non-exchangeable marker ^3H-CHE were prepared as described in Example 1, except that lipid films were hydrated with 100, 150, 200, 250 or 300 mM citrate, pH 4.0 (corresponding to osmolarity levels of about 200, 300, 400, 500 or 600 mOsm/kg, respectively).
DSPC/DSPE-PEG2000 (95:5 mole ratio) liposomes prepared with 100, 150 and 300 mM citrate were also loaded with idarubicin at a drug to lipid mole ratio of 0.25:1. Loading was facilitated by incubating the drug and liposomes at 37° C. for 60 minutes. Liposomes were administered to Balb/c mice as indicated and blood samples were removed by cardiac puncture at 0.5, 1, 2, 4 and 24-hours post administration (3 mice per time point). Idarubicin concentration was quantitated using fluorescence intensity at 485 nm as the excitation wavelength and 535 nm as an emission wavelength and using an absorbance wavelength of 482 nm.

[2] = Vincristine retention in liposomes in blood after intravenous injection of Balb/c mice; format: in vivo; conditions: i.v., 1, 4, 24 h
Protocol: Solutions of lipids in chloroform were combined to give a 95:5 molar ratio of DSPC/DSPE-PEG2000 or a 55:45 molar ratio of DSPC/Cholesterol, with trace amounts of ^14C-cholesteryl hexadecyl ether (^14C-CHE). The resulting mixtures were dried under a stream of nitrogen gas and placed in a vacuum pump overnight. The samples were hydrated at 70° C. with either 300 mM citrate, pH 4.0 (about 600 milliosmoles/kg (mOsm/kg)) or 150 mM citrate buffer, pH 4.0 (about 300 mOsm/kg) and passed through an extrusion apparatus (Northern Lipids Inc., Vancouver, BC) ten times with two 100 nm pore size polycarbonate filters at 70° C. Average liposome size was determined by quasi-elastic light scattering using a NICOMP 370 submicron particle sizer operating at a wavelength of 632.8 nm. The resulting liposomes were applied to a Sephadex G50 column equilibrated with HBS (20 mM HEPES, 150 mM NaCl, about 320 mOsm/kg), pH 7.45 to exchange the external liposomal buffer. […]
Vincristine-containing liposomes were administered intravenously to Balb/c mice at a lipid dose of 165 μmoles/kg in a final volume of 200 μL immediately after preparation (within 1-2 hrs). […] Lipid and vincristine levels were quantified by liquid scintillation counting and the values were reported as the mean±standard deviation (SD).

[3] = Daunorubicin retention in liposomes in blood after intravenous injection (time course); format: in vivo, Balb/c mice; conditions: low-cholesterol liposomes DSPC/DSPE-PEG2000 (95:5); citrate 600 mOsm/kg (300 mM) in relation to 300 mOsm/kg (150 mM); i.v.; 1, 4, 24 h
Protocol: DSPC/DSPE-PEG2000 liposomes (95:5 mole ratio) containing 150 or 300 mM citrate (300 or 600 mOsm/kg), pH 4 and DSPC/Cholesterol (55:45 mole ratio) and DSPC/Cholesterol/DSPE-PEG2000 (50:45:5 mole ratio) liposomes containing 150 mM citrate, pH 4 were prepared as described in Example 1. Liposomes were subsequently combined with daunorubicin at a 0.2:1 drug to lipid mole ratio. To facilitate drug loading, the mixtures were incubated at 40° C. for 60 minutes.
The resulting daunorubicin-containing liposomes were administered to Balb/c female mice at a lipid dose of 165 μmoles/kg as detailed above. Blood samples were removed at 1, 4 and 24 hours post administration by cardiac puncture (3 mice per time point). Lipid levels were determined by liquid scintillation counting. Daunorubicin was extracted from plasma samples and quantified as follows: a defined volume of plasma was adjusted to 200 μL with distilled water followed by addition of 600 μL of distilled water, 100 μL of 10% SDS and 100 μL of 10 mM H2SO4. This solution was mixed and 2 mLs of 1:1 isopropanol/chloroform was added followed by vortexing. […] The bottom organic layer was removed and assayed for fluorescence intensity at 500 nm as the excitation wavelength (2.5 nm bandpass) and 550 nm as an emission wavelength (10 nm bandpass) and using an absorbance wavelength of 480 nm.

[4] = Daunorubicin retention 4 hours after intravenous injection, varying internal citrate; format: in vivo, Balb/c mice; conditions: DSPC/DSPE-PEG2000 (95:5); 100, 150 and 200 mM internal citrate (about 200, 300, 400 mOsm/kg), versus 250 and 300 mM; 4 hours after i.v.
Protocol: Daunorubicin was loaded at a 0.2:1 drug-to-lipid mole ratio with the methods detailed above into each of the five liposomal formulations. The resulting liposomes were administered to female Balb/c mice at a lipid dose of 165 μmoles/kg in a final volume of 200 μL immediately after preparation (within 1-2 hrs). Blood samples were removed 4 hours after administration by cardiac puncture (3 mice per time point). Lipid and daunorubicin levels were determined as described previously and percent initial drug-to-lipid ratio was reported as the mean±SD.

[5] = Freeze/thaw stability of DSPC/DSPG liposomes (drug-to-lipid ratio and size) at -20 or -70 C for 24 hours; format: physicochemical; conditions: 0-20 mole % cholesterol, 250 mM CuSO4 internal, frozen at -20 C and -70 C for 24 hours
Protocol: FUDR and irinotecan were loaded into cholesterol-free liposomes containing a low osmolarity internal solution and drug retention and liposome size were measured prior to and after freezing. DSPC/DSPG liposomes containing 0-20 mole % cholesterol, 20 mole % DSPG and passively entrapped FUDR were prepared as described previously and hydrated in 250 mM CuSO4 (<500 mOsm/kg). The MLVs were extruded at 70° C. as detailed above and buffered exchanged into saline and then into 300 mM sucrose, 20 mM Hepes, 30 mM EDTA (SHE), pH 7.4 using a hand-held tangential flow column. The sample was then further exchanged into 300 mM sucrose, 20 mM Hepes, pH 7.4 to remove residual EDTA. The liposomes were subsequently loaded with irinotecan at a drug-to-lipid mole ratio of 0.1:1 by mixing the two solutions at 50° C. for five minutes. The dual-loaded liposomes were then buffered exchanged into HBS using tangential flow to remove any unencapsulated drug.
The influence of freezing on liposome stability was determined by freezing the liposomes at either −20° C. or −70° C. for 24 hours. […] Lipid and FUDR levels were quantified using liquid scintillation and absorbance at 370 nm was used to determine irinotecan concentration. Particle sizing of the liposomes was also determined prior to and after freezing using quasi-elastic light scattering.

Structure (SMILES): CC(=O)[C@]1(O)Cc2c(O)c3c(c(O)c2[C@@H](O[C@H]2C[C@H](N)[C@H](O)[C@H](C)O2)C1)C(=O)c1ccccc1C3=O [idarubicin]
- idarubicin retention (idarubicin-to-lipid mole ratio in the blood) [1]: significantly decreased

Structure (SMILES): CC[C@]1(O)C[C@H]2CN(CCc3c([nH]c4ccccc34)[C@@](C(=O)OC)(c3cc4c(cc3OC)N(C=O)[C@H]3[C@@](O)(C(=O)OC)[C@H](OC(C)=O)[C@]5(CC)C=CCN6CC[C@]43[C@@H]65)C2)C1 [vincristine]
- retention of vincristine (percent initial vincristine-to-lipid weight ratio in the blood) ([2]; cholesterol containing liposomes DSPC/cholesterol (55:45), 150 vs 300 mM citrate): independent of the osmolarity of the intraliposomal solution
- retention of vincristine (percent initial vincristine-to-lipid weight ratio in the blood) ([2]; low-cholesterol liposomes DSPC/DSPE-PEG2000 (95:5), internal citrate 300 mOsm/kg (150 mM) compared to 600 mOsm/kg (300 mM)): significantly enhanced

Structure (SMILES): COc1cccc2c1C(=O)c1c(O)c3c(c(O)c1C2=O)C[C@@](O)(C(C)=O)C[C@@H]3O[C@H]1C[C@H](N)[C@H](O)[C@H](C)O1 [daunorubicin]
- daunorubicin retention (percent initial daunorubicin-to-lipid ratio remaining in the blood) [3]: compromised
- retention of daunorubicin (percent initial drug-to-lipid ratio in the blood) [4]: optimal retention

Structure (SMILES): CCc1c2c(nc3ccc(OC(=O)N4CCC(N5CCCCC5)CC4)cc13)-c1cc3c(c(=O)n1C2)COC(=O)[C@]3(O)CC [irinotecan]
- retention of irinotecan after freezing (drug-to-lipid ratio) [5]: effectively retained
